Results taken from ChEMBL document CHEMBL1649285, “In vivo efficacy of 1- and 2-gram human simulated prolonged infusions of doripenem against Pseudomonas aeruginosa” (Antimicrob Agents Chemother, 2009).
In brackets after ≈: the same amount, converted by molar mass.

How the values were obtained:
[1] = test system: Pseudomonas aeruginosa; test: Antimicrobial activity against Pseudomonas aeruginosa isolate 878 by broth microdilution method; format: functional
[2] = fT>MIC in Pseudomonas aeruginosa selected at 8 ug/ml MIC infected human at 1 g, iv administered as 4 hrs infusion every 8 hrs; format: functional
[3] = fT>MIC in Pseudomonas aeruginosa selected at 2 ug/ml MIC infected human at 1 g, iv administered as 4 hrs infusion every 8 hrs; format: functional
[4] = test system: Pseudomonas aeruginosa; test: Antimicrobial activity against Pseudomonas aeruginosa isolate 1060 by broth microdilution method; format: functional
[5] = fT>MIC in Pseudomonas aeruginosa selected at 4 ug/ml MIC infected ICR mouse at 2 g, sc administered 2 hrs post infection every 8 hrs; format: functional
[6] = test system: Homo sapiens; test: fAUC in human at 2 g, iv administered as 4 hrs infusion every 8 hrs; format: ADME, organism-based; details: in vivo
[7] = test system: Pseudomonas aeruginosa; test: Antimicrobial activity against Pseudomonas aeruginosa isolate 856 by broth microdilution method; format: functional
[8] = fT>MIC in Pseudomonas aeruginosa selected at 16 ug/ml MIC infected ICR mouse at 2 g, sc administered 2 hrs post infection every 8 hrs; format: functional
[9] = test system: Homo sapiens; test: fCmax in human at 1 g, iv administered as 4 hrs infusion every 8 hrs; format: ADME, organism-based; details: in vivo
[10] = test system: Pseudomonas aeruginosa; test: Antimicrobial activity against Pseudomonas aeruginosa isolate 913 by broth microdilution method; format: functional
[11] = fT>MIC in Pseudomonas aeruginosa selected at 16 ug/ml MIC infected human at 2 g, iv administered as 4 hrs infusion every 8 hrs; format: functional
[12] = test system: Pseudomonas aeruginosa; test: Antimicrobial activity against Pseudomonas aeruginosa selected at MIC […] to […] ug/ml infected ICR mouse assessed as reduction in bacterial load at 2g, sc administered 2 hrs post infection every 8 hrs; format: functional
[13] = test system: Homo sapiens; test: fCmax in human at 2 g, iv administered as 4 hrs infusion every 8 hrs; format: ADME, organism-based; details: in vivo
[14] = fT>MIC in Pseudomonas aeruginosa selected at 32 ug/ml MIC infected human at 1 g, iv administered as 4 hrs infusion every 8 hrs; format: functional
[15] = test system: Pseudomonas aeruginosa; test: Antimicrobial activity against Pseudomonas aeruginosa isolate 1080 by broth microdilution method; format: functional
[16] = test system: Pseudomonas aeruginosa; test: Antimicrobial activity against Pseudomonas aeruginosa isolate 821 by broth microdilution method; format: functional
[17] = fT>MIC in Pseudomonas aeruginosa selected at 8 ug/ml MIC infected ICR mouse at 1 g, sc administered 2 hrs post infection every 8 hrs; format: functional
[18] = test system: Pseudomonas aeruginosa; test: Antimicrobial activity against Pseudomonas aeruginosa isolate 1036 by broth microdilution method; format: functional
[19] = fT>MIC in Pseudomonas aeruginosa selected at 2 ug/ml MIC infected ICR mouse at 1 g, sc administered 2 hrs post infection every 8 hrs; format: functional
[20] = fT>MIC in Pseudomonas aeruginosa selected at 32 ug/ml MIC infected human at 2 g, iv administered as 4 hrs infusion every 8 hrs; format: functional
[21] = test system: Pseudomonas aeruginosa; test: Antimicrobial activity against Pseudomonas aeruginosa isolate 1095 by broth microdilution method; format: functional
[22] = fT>MIC in Pseudomonas aeruginosa selected at 4 ug/ml MIC infected ICR mouse at 1 g, sc administered 2 hrs post infection every 8 hrs; format: functional
[23] = fT>MIC in Pseudomonas aeruginosa selected at 4 ug/ml MIC infected human at 2 g, iv administered as 4 hrs infusion every 8 hrs; format: functional
[24] = test system: Pseudomonas aeruginosa; test: Antimicrobial activity against Pseudomonas aeruginosa isolate 22 by broth microdilution method; format: functional
[25] = test system: Pseudomonas aeruginosa; test: Antimicrobial activity against Pseudomonas aeruginosa isolate 896 by broth microdilution method; format: functional
[26] = test system: Mus musculus; test: fAUC in ICR mouse at 2 g, sc administered 2 hrs post infection every 8 hrs; format: ADME, organism-based; details: in vivo
[27] = test system: Pseudomonas aeruginosa; test: Antimicrobial activity against Pseudomonas aeruginosa isolate 927 by broth microdilution method; format: functional
[28] = test system: Mus musculus; test: fCmax in ICR mouse at 2 g, sc administered 2 hrs post infection every 8 hrs; format: ADME, organism-based; details: in vivo
[29] = fT>MIC in Pseudomonas aeruginosa selected at 2 ug/ml MIC infected human at 2 g, iv administered as 4 hrs infusion every 8 hrs; format: functional
[30] = test system: Pseudomonas aeruginosa; test: Antimicrobial activity against Pseudomonas aeruginosa isolate 968 by broth microdilution method; format: functional
[31] = fT>MIC in Pseudomonas aeruginosa selected at 32 ug/ml MIC infected ICR mouse at 2 g, sc administered 2 hrs post infection every 8 hrs; format: functional
[32] = test system: Pseudomonas aeruginosa; test: Antimicrobial activity against Pseudomonas aeruginosa isolate 1050 by broth microdilution method; format: functional
[33] = test system: Pseudomonas aeruginosa; test: Antimicrobial activity against Pseudomonas aeruginosa isolate 1006 by broth microdilution method; format: functional
[34] = test system: Pseudomonas aeruginosa; test: Antimicrobial activity against Pseudomonas aeruginosa isolate 944 by broth microdilution method; format: functional
[35] = fT>MIC in Pseudomonas aeruginosa selected at 8 ug/ml MIC infected human at 2 g, iv administered as 4 hrs infusion every 8 hrs; format: functional
[36] = test system: Mus musculus; test: fCmax in ICR mouse at 1 g, sc administered 2 hrs post infection every 8 hrs; format: ADME, organism-based; details: in vivo
[37] = test system: Homo sapiens; test: fAUC in human at 1 g, iv administered as 4 hrs infusion every 8 hrs; format: ADME, organism-based; details: in vivo
[38] = test system: Pseudomonas aeruginosa; test: Antimicrobial activity against Pseudomonas aeruginosa isolate 988 by broth microdilution method; format: functional
[39] = test system: Mus musculus; test: fAUC in ICR mouse at 1 g, sc administered 2 hrs post infection every 8 hrs; format: ADME, organism-based; details: in vivo
[40] = test system: Pseudomonas aeruginosa; test: Antimicrobial activity against Pseudomonas aeruginosa selected at MIC […] to […] ug/ml infected ICR mouse assessed as reduction in bacterial load at 1g, sc administered 2 hrs post infection every 8 hrs; format: functional
[41] = fT>MIC in Pseudomonas aeruginosa selected at 4 ug/ml MIC infected human at 1 g, iv administered as 4 hrs infusion every 8 hrs; format: functional
[42] = fT>MIC in Pseudomonas aeruginosa selected at 32 ug/ml MIC infected ICR mouse at 1 g, sc administered 2 hrs post infection every 8 hrs; format: functional
[43] = fT>MIC in Pseudomonas aeruginosa selected at 2 ug/ml MIC infected ICR mouse at 2 g, sc administered 2 hrs post infection every 8 hrs; format: functional
[44] = fT>MIC in Pseudomonas aeruginosa selected at 16 ug/ml MIC infected human at 1 g, iv administered as 4 hrs infusion every 8 hrs; format: functional
[45] = test system: Pseudomonas aeruginosa; test: Antimicrobial activity against Pseudomonas aeruginosa isolate 1093 by broth microdilution method; format: functional
[46] = fT>MIC in Pseudomonas aeruginosa selected at 8 ug/ml MIC infected ICR mouse at 2 g, sc administered 2 hrs post infection every 8 hrs; format: functional
[47] = fT>MIC in Pseudomonas aeruginosa selected at 16 ug/ml MIC infected ICR mouse at 1 g, sc administered 2 hrs post infection every 8 hrs; format: functional
[48] = test system: Pseudomonas aeruginosa; test: Antimicrobial activity against Pseudomonas aeruginosa isolate 971 by broth microdilution method; format: functional

Question: With `C[C@@H](O)[C@H]1C(=O)N2C(C(=O)O)=C(S[C@@H]3CN[C@H](CNS(N)(=O)=O)C3)[C@H](C)[C@H]12` [DORIPENEM] as the compound, how does the MIC [1] read?
Answer: The MIC was 8 µg/mL (≈ 19 µM).

Question: What about the “fT>MIC” value [2] of the same compound?
Answer: The value was 50%.

Question: And the “fT>MIC” value [3]?
Answer: Its value is 80%.

Question: And the MIC [4]?
Answer: The MIC was 4 µg/mL (≈ 9.51 µM).

Question: And the “fT>MIC” value [5]?
Answer: The value was 82.5%.

Question: What about the fAUC [6] of the same compound?
Answer: Its fAUC is 129300 ng·h/mL.

Question: What about the MIC [7] of the same compound?
Answer: The MIC was 16 µg/mL (≈ 38 µM).

Question: And the “fT>MIC” value [8]?
Answer: Its value is 52.5%.

Question: What about the fCmax [9] of the same compound?
Answer: Its fCmax is 15.6 µg/mL.

Question: What about the MIC [10] of the same compound?
Answer: The MIC was 16 µg/mL (≈ 38 µM).

Question: And the “fT>MIC” value [11]?
Answer: Its value is 50%.

Question: What about the log10cfu [12] of the same compound?
Answer: Its log10cfu is “>=2”.

Question: What about the fCmax [13] of the same compound?
Answer: Its fCmax is 31.2 µg/mL.

Question: And the “fT>MIC” value [14]?
Answer: Its value is 0%.

Question: What about the MIC [15] of the same compound?
Answer: Its MIC is 32 µg/mL (≈ 76.1 µM).

Question: What about the MIC [16] of the same compound?
Answer: Its MIC is 32 µg/mL (≈ 76.1 µM).

Question: What about the “fT>MIC” value [17] of the same compound?
Answer: Its value is 52.5%.

Question: And the MIC [18]?
Answer: Its MIC is 2 µg/mL (≈ 4.76 µM).

Question: And the “fT>MIC” value [19]?
Answer: Its value is 82.5%.

Question: What about the “fT>MIC” value [20] of the same compound?
Answer: The value was 0%.

Question: And the MIC [21]?
Answer: Its MIC is 4 µg/mL (≈ 9.51 µM).

Question: And the “fT>MIC” value [22]?
Answer: The value was 70%.

Question: What about the “fT>MIC” value [23] of the same compound?
Answer: Its value is 80%.

Question: And the MIC [24]?
Answer: Its MIC is 8 µg/mL (≈ 19 µM).

Question: And the MIC [25]?
Answer: The MIC was 8 µg/mL (≈ 19 µM).

Question: And the fAUC [26]?
Answer: The fAUC was 137100 ng·h/mL.

Question: And the MIC [27]?
Answer: The MIC was 16 µg/mL (≈ 38 µM).

Question: And the fCmax [28]?
Answer: The fCmax was 31.9 µg/mL.

Question: And the “fT>MIC” value [29]?
Answer: The value was 95%.

Question: And the MIC [30]?
Answer: Its MIC is 16 µg/mL (≈ 38 µM).

Question: And the “fT>MIC” value [31]?
Answer: The value was 0%.

Question: And the MIC [32]?
Answer: Its MIC is 4 µg/mL (≈ 9.51 µM).

Question: What about the MIC [33] of the same compound?
Answer: The MIC was 8 µg/mL (≈ 19 µM).

Question: And the MIC [34]?
Answer: The MIC was 4 µg/mL (≈ 9.51 µM).

Question: What about the “fT>MIC” value [35] of the same compound?
Answer: Its value is 65%.

Question: What about the fCmax [36] of the same compound?
Answer: Its fCmax is 15.9 µg/mL.

Question: And the fAUC [37]?
Answer: The fAUC was 64700 ng·h/mL.

Question: And the MIC [38]?
Answer: The MIC was 8 µg/mL (≈ 19 µM).

Question: What about the fAUC [39] of the same compound?
Answer: The fAUC was 68600 ng·h/mL.

Question: What about the log10cfu [40] of the same compound?
Answer: Its log10cfu is “>=2”.

Question: And the “fT>MIC” value [41]?
Answer: The value was 65%.

Question: And the “fT>MIC” value [42]?
Answer: Its value is 0%.

Question: What about the “fT>MIC” value [43] of the same compound?
Answer: Its value is 95%.

Question: And the “fT>MIC” value [44]?
Answer: The value was 0%.

Question: What about the MIC [45] of the same compound?
Answer: The MIC was 32 µg/mL (≈ 76.1 µM).

Question: What about the “fT>MIC” value [46] of the same compound?
Answer: The value was 70%.

Question: What about the “fT>MIC” value [47] of the same compound?
Answer: Its value is 0%.

Question: And the MIC [48]?
Answer: Its MIC is 16 µg/mL (≈ 38 µM).
